Measurements: patent publication US10508111B2, “6-[5-amino-6-(2-ethoxyethoxy)-imidazo[4,5-B]pyridin-3-yl]-nicotinonitrile derivatives and their use as IRAK inhibitors” (GALAPAGOS NV, priority 2015, dated 2019)

Tests used:
Assay type in all cases: biochemical
human IRAK-4 = target: T1, human IRAK-4 (Homo sapiens, UniProt Q9NWZ3); experiment: IC50 determination for human IRAK-4, radioactive filter plate assay; conditions: RIP140 substrate, 1 μM ATP + [γ-33P]ATP, 30° C., 45 min; read-out: hIRAK-4 IC50
T1 construct: purchased Carna Biosciences 09-145
T1 sequence (Q9NWZ3 1-460): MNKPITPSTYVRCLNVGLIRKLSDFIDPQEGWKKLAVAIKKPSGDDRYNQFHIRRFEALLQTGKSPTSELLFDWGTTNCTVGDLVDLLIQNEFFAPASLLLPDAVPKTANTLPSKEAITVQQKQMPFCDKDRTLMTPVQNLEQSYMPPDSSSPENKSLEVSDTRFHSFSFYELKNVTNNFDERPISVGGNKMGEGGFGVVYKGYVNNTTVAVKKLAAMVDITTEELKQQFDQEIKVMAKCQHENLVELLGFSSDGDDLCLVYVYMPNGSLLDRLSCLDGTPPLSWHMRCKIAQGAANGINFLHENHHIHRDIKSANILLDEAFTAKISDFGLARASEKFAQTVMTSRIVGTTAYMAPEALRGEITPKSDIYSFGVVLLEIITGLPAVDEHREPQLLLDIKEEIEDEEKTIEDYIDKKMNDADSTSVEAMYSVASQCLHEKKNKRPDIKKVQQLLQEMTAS
Experimental: The IC50 value for IRAK-4 is determined in a radioactive filter plate assay. The principle of the assay consists in the measurement of incorporated ^33P into the RIP140 substrate upon phosphorylation by the enzyme IRAK-4 using [γ-^33P]ATP and ATP. Unincorporated ^33P is removed by loading the samples on a filter plate (using a harvester, PerkinElmer) and 6 subsequent washing steps. Incorporated ^33P in RIP140 is measured by a scintillation counter (Topcount, PerkinElmer) after addition of MicroScint™-20 (PerkinElmer, 6013621) to the filter plates.
5 μL of a water dilution series of test compound (starting from 20 μM or 6.6 μM highest concentration), from a 100% DMSO stock solution, 1/5 dilution, is added to the wells (final DMSO concentration of 1% in reaction assay). IRAK-4 (Carna Biosciences, 09-145) and RIP140 (SEQ ID1, cf. Table VII) are used at a final concentration of 10 ng/mL and 4 μM, respectively. The enzyme and substrate are diluted in 25 mM Tris pH 7.5, 0.025% Triton X-100, 5 mM MnCl2, and 2 mM DTT to a total volume of 11 μL. The reaction is started by addition of 9 μL of 1 μM ATP (Sigma, A6419-5G)+0.25 μCi [γ-^33P]ATP (PerkinElmer, NEG602K001MC), diluted in the same buffer as enzyme and substrate. The mixture is incubated at 30° C. for 45 min. The reaction is terminated by adding 25 μL of 150 mM phosphoric acid (VWR, 1.00573.1000). Samples are transferred to filter plates and incorporated radioactivity is measured using a scintillation counter.
(§1) 10 μM staurosporine (1% DMSO) is used as positive control (100% inhibition); vehicle (water+1% DMSO) as negative control (0% inhibition).

ABL = target: T2, ABL (Homo sapiens, UniProt P00519); experiment: Kinase selectivity profiling (focused panel), radioactive filter plate assay: ABL; conditions: PolyGT substrate, 0.5 μM ATP, 60 min
T2 construct: purchased Life Technologies P3049
T2 sequence (P00519 whole entry): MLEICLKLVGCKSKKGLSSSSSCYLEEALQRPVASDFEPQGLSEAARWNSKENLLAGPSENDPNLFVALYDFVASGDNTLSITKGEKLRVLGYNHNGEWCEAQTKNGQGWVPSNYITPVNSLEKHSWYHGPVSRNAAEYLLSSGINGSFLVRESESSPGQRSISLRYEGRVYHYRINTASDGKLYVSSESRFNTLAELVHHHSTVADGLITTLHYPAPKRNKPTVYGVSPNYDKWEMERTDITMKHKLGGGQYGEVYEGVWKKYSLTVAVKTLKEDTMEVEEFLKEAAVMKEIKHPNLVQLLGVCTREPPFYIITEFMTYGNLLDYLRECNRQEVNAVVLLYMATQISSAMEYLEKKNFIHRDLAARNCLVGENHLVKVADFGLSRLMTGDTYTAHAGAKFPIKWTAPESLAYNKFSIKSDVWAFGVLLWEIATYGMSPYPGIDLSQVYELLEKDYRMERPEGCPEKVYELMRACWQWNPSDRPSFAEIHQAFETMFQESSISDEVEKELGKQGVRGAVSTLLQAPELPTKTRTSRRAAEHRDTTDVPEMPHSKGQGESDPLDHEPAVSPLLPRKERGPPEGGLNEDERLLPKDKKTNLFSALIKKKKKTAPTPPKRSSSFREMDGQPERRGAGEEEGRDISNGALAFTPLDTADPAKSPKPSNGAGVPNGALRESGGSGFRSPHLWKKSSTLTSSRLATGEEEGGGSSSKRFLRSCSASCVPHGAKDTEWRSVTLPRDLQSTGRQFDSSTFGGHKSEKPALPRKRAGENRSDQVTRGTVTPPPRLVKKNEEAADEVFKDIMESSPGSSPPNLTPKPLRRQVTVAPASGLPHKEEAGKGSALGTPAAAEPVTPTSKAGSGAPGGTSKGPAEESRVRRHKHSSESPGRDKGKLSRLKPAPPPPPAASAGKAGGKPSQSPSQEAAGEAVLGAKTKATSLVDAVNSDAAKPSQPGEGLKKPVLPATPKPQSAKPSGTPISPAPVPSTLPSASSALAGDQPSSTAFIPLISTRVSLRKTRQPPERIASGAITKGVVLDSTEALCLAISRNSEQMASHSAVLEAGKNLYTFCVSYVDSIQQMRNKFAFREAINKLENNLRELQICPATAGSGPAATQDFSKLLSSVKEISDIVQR
Experimental: (§2) The purpose of this assay is to determine the activity and selectivity of a compound of the invention on a selected range of human kinases which may result in undesirable side-effects when inhibited (Dy & Adjei 2013; Force & Kolaja 2011).
(§3) The IC50 value for off-target kinases is determined in radioactive filter plate assays. The principle of the assays consists in the measurement of incorporated ^33P into a peptide substrate upon phosphorylation by the kinase enzyme using [γ-^33P]ATP and ATP. Unincorporated ^33P is removed by loading the samples on a filter plate (using a harvester, PerkinElmer) and 6 subsequent washing steps. Incorporated ^33P in the peptide substrate is measured by a scintillation counter (Topcount, PerkinElmer) after addition of MicroScint™-20 (PerkinElmer, 6013621) to the filter plates.
(§4) 5 μL of a water dilution series of test compound (starting from 20 μM or 6.6 μM highest concentration), from a 100% DMSO stock solution, 1/5 dilution, is added to the wells (final DMSO concentration of 1% in reaction assay). Enzyme and peptide substrate are used at optimized concentrations (cf. Table VI). The enzyme and substrate are diluted in assay buffer to a total volume of 11 μL. The reaction is started by addition of 9 μL of ATP+[γ-^33P]ATP, diluted in the same buffer as enzyme and substrate. The mixture is incubated at 30° C. The reaction is terminated by adding 25 μL of 150 mM phosphoric acid. Samples are transferred to filter plates and incorporated radioactivity is measured using a scintillation counter.
The incubation time, assay buffer composition, and concentrations of ATP, enzyme and substrate are reported in Table VI for example kinase off-target assays.
as §1

Aurora B = target: T3, Aurora B (Homo sapiens, UniProt Q96GD4); experiment: Kinase selectivity profiling (focused panel), radioactive filter plate assay: Aurora B; conditions: Histone H3 peptide, 1.3 μM ATP, 90 min
T3 construct: purchased Carna BioSciences 05-102
T3 sequence (Q96GD4 whole entry): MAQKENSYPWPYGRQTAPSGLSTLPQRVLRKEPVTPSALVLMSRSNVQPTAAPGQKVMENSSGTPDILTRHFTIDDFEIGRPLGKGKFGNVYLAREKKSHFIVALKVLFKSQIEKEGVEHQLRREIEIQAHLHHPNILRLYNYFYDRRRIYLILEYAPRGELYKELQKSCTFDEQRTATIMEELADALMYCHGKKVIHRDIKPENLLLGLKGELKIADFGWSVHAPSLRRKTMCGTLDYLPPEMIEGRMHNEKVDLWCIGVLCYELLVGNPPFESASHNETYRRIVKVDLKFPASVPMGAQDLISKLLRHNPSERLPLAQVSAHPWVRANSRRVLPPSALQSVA
T3 sequence (Q9NQS7 803-918 partner limits assumed): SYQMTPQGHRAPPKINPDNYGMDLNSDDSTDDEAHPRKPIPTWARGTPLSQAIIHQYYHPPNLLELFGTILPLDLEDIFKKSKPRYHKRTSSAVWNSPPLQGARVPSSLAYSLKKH
Experimental: as §2, §3
as §4, with “The reaction is started by addition of 9 μL of ATP+[γ-^33P]ATP, diluted in the same buffer as enzyme and substrate. The mixture is incubated at 30° C. The reaction is terminated by adding 25 μL of 150 mM phosphoric acid.” left out, “counter. […]” for “counter.”

IC50 (human IRAK-4) [nM]	IC50 (ABL) [nM]	IC50 (Aurora B) [nM]	SMILES
6.35	–	–	N#Cc1ccc(-n2cnc3cc(OCCOCCO)c(NC4CCOCC4)nc32)nc1 [Compound 1, 6-[6-[2-(2-hydroxy-ethoxy)-ethoxy]-5-(tetrahydro-pyran-4-ylamino)-imidazo[4,5-b]pyridin-3-yl]-nicotinonitrile]
0.95	138	> 1880	C[C@]1(O)CC[C@@H](Nc2nc3c(cc2OCCOCCO)ncn3-c2ccc(C#N)cn2)CC1 [Compound 12, 6-[6-[2-(2-hydroxyethoxy)ethoxy]-5-[((cis-1,4)-4-hydroxy-4-methylcyclohexyl)amino]imidazo[4,5-b]pyridin-3-yl]pyridine-3-carbonitrile]
